What was measured:
Assay type in all cases: cell-based, human
PHA-activated PBLs = assay: Intracellular FoxP3 staining of CD4+CD25highCD127- population; conditions: PHA-activated PBLs, 30, 50, 100 μM SNAP, 5 days, FIG. 3
Description: Foxp3 intracellular staining was carried out using the FITC anti-human Foxp3 staining kit (BDBiosciences, San Diego, Calif.; Cat no 71-5776-40). In brief, PBLs from various groups were incubated with anti-human CD4-PerCP, anti-human CD25-APC and anti-human CD127-PE Abs for 20 minutes at room temperature for surface staining of CD4, CD25 and CD127 molecules, respectively. Cells were then washed, and fixed with Fix/Perm solution (30 minutes at 4° C.) and permeabilized with permeabilization buffer followed by blocking with rat serum (15 minutes at 4° C.). Cells were then stained with FITC-conjugated anti-FoxP3 or isotype control Ab (30 minutes at 4° C.). Cells were analyzed by flow cytometry for intracellular FoxP3 levels in CD4^+CD25^high/CD127^low versus CD4^+CD25^high/CD127^high cells on a FACSAria.

CD4+CD25- cells = assay: CFSE labeling and T cell co-culture assay (switching of CD4+CD25- cells); conditions: in the presence of Treg cells
Description: The CD4^+CD25^negative and CD4^+CD25^high T cell populations were isolated from T cells by cell sorting (FACSAria). Next, CD4^+CD25^negative cells were labeled with carboxyfluorescein diacetate succinimidyl ester (CFDA-SE; cat no C1157, Invitrogen) as described elsewhere (Hans et al., 2005). A stock solution of CFSE (5 mM) was diluted with PBS and added to the CD4^+CD25^negative cells at final concentration of 1 µM per 1×10^6 cells (20 minutes at 37° C.). After three washings, CFSE-labeled CD4^+CD25^negative cells (1×10^6) were co-cultured without or with CD4^+CD25^high cells at 10:1 ratio without or with titrated SNAP or DMSO and 6 hours later cells were activated with PHA (10 μg/ml). Following 5 days cells were harvested and stained with anti-human CD25-APC and anti-human CD127-PE Abs to measure transformation of CD^4+CD25^negative cells to CD25^+CD127^negative cells by FACS. The same cells were added to a primary syngeneic MLC at responder/regulator cell ratios (1/0, 1/0.25, 1/0.5, and 1/1). Cells were cultured for 5 days and the [^3H]-thymidine incorporation was measured as described above.

[1] = tested on: PBLs challenged with HLA-mismatched alloantigen; assay: Number of Treg cells generated in alloactivated PBL culture; conditions: 100 μM SNAP, 60×10^6 PBLs, 5-day culture, FIG. 5A
Description: Alloactivation was set up by co-culturing responder PBLs (1-2×10^6 cells/ml) in a total volume of 35 ml of RPMI-10 with fully HLA mismatched gamma-irradiated (30 Gy) stimulators (1:1 ratio) in the presence of SNAP/DMSO. After 5 days, cells were washed and stained with anti-CD4-FITC and anti-CD25-PE Abs to isolate CD4+CD25^high and CD4+CD25^intermediate populations by FACS sorting. These cell populations were then added to fresh syngeneic PBLs (1×10^5) at different responder/regulator cell ratios (1/0, 1/0.005, 1/0.01, 1/0.05, 1/0.1, 1/0.5, and 1/1) with the same HLA-mismatched irradiated stimulators (1×10^5). Cells cultured in a 200 μl volume of RPMI-10 in 96-well round-bottomed plates for 5 days and pulsed with 1 μCi of [^3H]-thymidine for last 16 hours before harvesting. Cells were collected onto glass filters using an automated multi-sample harvester and the amount of [^3H]-thymidine incorporation was measured with a scintillation counter (Packard, Meridan, Conn.). Proliferative responses are expressed as the mean [^3H]-thymidine incorporation (counts per minute [cpm]) of triplicate wells±SD. In identical experiments, PBLs were activated with PHA (10 μg/ml) to examine the ability of NO-induced CD4+CD25^high population to suppress proliferation of alloantigen-specific MLC.

PBLs = assay: Generation of CD4+CD25highCD127- Treg cells in PBL culture (FACS)
Description: PBLs or purified T cells were either left untreated or treated with 10 μg/ml phytohemagglutanin (PHA, Sigma-Aldrich) at 1×10^6 cells/2 mL in 24-well plates in the absence or presence of various concentrations of SNAP-DMSO, DMSO or SNP and cultured in RPMI-10 for 5 days. Cells were then harvested and stained with anti-human CD4-PerCP, anti-human CD25-APC and anti-human CD127-PE Abs. Flow cytometry analysis measured CD4^+CD25^high CD127^low versus CD4^+CD25^highCD127^high populations using FACSAria with Diva program or FACSCalibur with CellQuest software (BD Pharmingen, San Diego, Calif.).

Question: What does the source list for `CC(=O)NC(C(=O)O)C(C)(C)SN=O` (racemic) [SNAP, S-Nitroso-N-acetyl-DL-penicillamine]?
Answer: generation of Foxp3-positive CD4+CD25+CD127- Treg cells (PHA-activated PBLs): induces generation of Foxp3-positive; switching of CD4+CD25- cells into CD4+CD25+CD127-FoxP3+ T regulatory (Tr1) cells (CD4+CD25- cells): elevated switching; number of Treg cells generated relative to culture without SNAP [1]: ~3 fold; levels of CD4+CD25+CD127- Treg cells (PBLs; PHA-activated PBLs, 5-day culture, FIG. 2B): significantly increased; increase in generation of CD4+CD25+CD127-FoxP3+ Treg cells (PBLs; low NO concentrations (10-100 μM nitrite)): 3 fold; number of CD4+CD25+CD127- Treg cells (PBLs; non-activated PBLs): did not affect
